The values below come from patent US20090105189A1, “METHODS AND COMPOSITIONS FOR AMELIORATING OR INHIBITING DECLINE IN MEMORY OR INTELLIGENCE OR IMPROVING SAME” (priority 2006, published 2009).

Holding throughout (assay type): cell-based
For one assay, the system named is PC 12 cells. As to the kind of experiment: Intracellular CDP-choline levels in PC12 cells treated with uridine. The note with it: uridine treatment, after 50 minutes. The method, then:
(§1) Brain tissue or cells was dissolved in methanol/chloroform (1:2 vol/vol), centrifuged, and the aqueous phase was dried under vacuum, resuspended in 100-200 μL water and separated by HPLC on an ion-exchange column (Alltech Hypersil APS-2, 5 μM, 250×4.6 mm). CDP-choline was eluted with a linear gradient of NaH2PO4 buffers A (1.75 mM NaH2PO4, pH 2.9) and B (500 mM, pH 4.5), which allowed resolution of CDP-choline from closely co-eluting substances such as UMP over 40 min. The retention time for CDP-choline was 9.5 min. Individual nucleotide peaks were detected by UV absorption at […], and were identified by comparison with the positions of authentic standards, as well as by the addition of nucleotide standards to selected samples.

Assay [1] relates to PLC/DAG/IP3 signaling pathway. The assay is described as follows: PI turnover (inositol phosphate formation) in NGF-differentiated PC12 cells. The note with it: for Formation of IP (PI turnover): 1 hour. As to the method: Analysis of PI turnover was performed as described by ([…] et al, J Neurochem 69: 704-12, 1997). Briefly, cells were labeled metabolically for 36 h with 1.25 microCurie (μCi)/dish of myo-[2-^3H]inositol (17-0 Curie/mmol; Amersham Biosciences) in serum-free MEM, washed twice with Hank's balanced salt solution (HBSS), and treated for 15 min with 10 mM lithium chloride in HBSS. Drugs were added in the presence of 10 mM lithium for 60 min at 37° C. Cells were lysed with ice-cold methanol, and lipids were removed by extraction with chloroform/methanol/water (2:2:1 by volume). Labeled water-soluble inositol phosphates were separated from free [^3H]inositol by ion-exchange chromatography, using AG 1-X8 columns (Bio-Rad), and 1M ammonium formate and 0.1M formic acid as eluent. Radioactivity was quantified by liquid scintillation spectrometry. P2Y2, P2Y4 and P2Y6 receptors activate the phospholipase C/diacylglycerol/inositol triphosphate (PLC/DAG/IP3) signaling pathway. […] These findings indicate that UTP promotes neurite outgrowth via P2Y receptors-mediated stimulation of the IP signaling pathway.

Assay [2] has as its system PC12 cells. As to the kind of experiment: NGF-induced neurite outgrowth in PC12 cells. The note with it: for Number of neurites per cell: PC12, with NGF. As to the method:
PC12 cells were maintained in Minimal Essential Medium (MEM; Invitrogen, Carlsbad, Calif.) supplemented with 10% fetal bovine serum (FBS) at 37° C. Experimental incubations were for 2 or 4 days in medium containing 50 ng/ml mouse 2.5 S (2.5 subunit) NGF and 1% FBS, with or without test compounds. NGF and FBS were obtained from Invitrogen.
(§2) PC12 cells were sparsely plated on collagen-coated 60 mm culture dishes in MEM containing 1% fetal bovine serum. […] All treatments were performed 24 h after plating. At the end of the treatment period, images were obtained with a phase-contrast Zeiss Axioplan 2 microscope, using OpenLab software. Six digital images were captured for each dish, for a total of 18 to 24 images per treatment group. Approximately 300 cells were quantified for each treatment group for each experiment. Experiments were performed in triplicate. Quantification of neurites, including neurite branching and neurite length, was performed by one more researchers blinded to experimental groups. Neurite length was measured using the public domain NIH software “Image J.” Processes longer than the diameter of the cell body were counted as neurites. Only process-bearing cells were analyzed.

The test system of assay [3] is P2Y2, P2Y4 and P2Y6 receptors. As to the kind of experiment: P2Y receptor expression in NGF-differentiated PC12 cells. Conditions: vs NGF alone. The method, then: Western blots utilized rabbit anti-P2Y2, anti-P2Y4 (both from Calbiochem); or rabbit anti-P2Y6 (Novus Biologicals, Littleton, Colo.). PC12 cells were treated as described above, except they were grown on 12 mm glass cover slips ([…] & Co., Vernon Hills, Ill.) coated with collagen. Proteins were visualized using immunofluorescence. […] For P2Y2 and P2Y4 visualization, control cultures were incubated with primary antibody plus a control antigen in order to ensure that the immuno-staining would be specific. Control antigen was not available for the P2Y6 receptor. Cells were then incubated in fluorochrome-conjugated secondary antibodies for 1 hour (goat anti-rabbit ALEXA 488 and goat anti-mouse ALEXA 568; Molecular Probes, Eugene, Oreg.) and mounted on glass slides with mounting media with or without DAPI (Vector Laboratories, Burlingame, Calif.). Control antigens provided with the primary antibodies were used to ensure that immuno-staining was specific. […] To determine whether these receptors participate in the mechanism by which extracellular UTP affects neurite outgrowth, it was first determined whether the receptors are expressed in PC 12 cells, and whether exposure to NGF alters their expression, PC 12 cells were treated for 0-7 days with NGF and levels of the receptors measured. […]

Assay [4] relates to PC12 cells. The assay is described as follows: Intracellular UTP and CTP levels in PC12 cells by HPLC. The note with it: PC12, 2 days with NGF, vs NGF only. The method, then: as §1
Levels of intracellular UTP and CTP were analyzed by HPLC as described for Example 5, except that 5 mM NaH2PO4, pH 2.65 was used as buffer A.

Another assay relates to P2Y receptors. The assay is described as follows: P2Y receptor antagonism of uridine-enhanced NGF-stimulated neurite outgrowth in PC12 cells. Conditions: PC12, 4 days, uridine 100 μM. As to the method:
as §2

In assay [5] the test system is PC12 cells. The assay is described as follows: Uptake of uridine into PC12 cells. The note with it: P2Y receptor antagonists.

As for `O=c1ccn([C@@H]2O[C@H](CO)[C@@H](O)[C@H]2O)c(=O)[nH]1` [uridine], the “Intracellular CDP-choline levels” value with PC 12 cells is on record as “statistically significant increase”. The “Formation of IP (PI turnover)” value in assay [1] (NGF-differentiated PC12, 50 μM) is listed as “significantly increased”. In addition, the Average neurite length entry in the assay with PC12 cells [2] (NGF-differentiated PC12 cells) was “did not significantly affect”. Moreover, in the assay on PC12 cells [2] (PC12, NGF, 50 μM, 4 days, vs NGF only), the “Number of neurite branch points per cell” value is “significantly (p<0.01) increased”. Besides, the Production of neurites entry with PC12 cells [2] (PC12, absence of NGF, 50 μM, 2 or 4 days) was “did not result in the production of neurites”. Moreover, the “Number of neurites per cell” value with PC12 cells [2] (2-day treatment or lower concentrations (10, 25 μM)) was “had no effect”. Also, in the assay on PC12 cells [2] (50-200 μM, 4 days), the “Number of neurites per cell” value was “significantly (p<0.01 or 0.001) enhanced”. Moreover, the “Expression of P2Y2, P2Y4 and P2Y6 receptors” value in assay [3] is “did not affect the expression of the receptors”. In the assay on PC12 cells [4] (50 μM), the “Intracellular CTP levels” value was “significantly (p<0.05) increased” and the “Intracellular UTP levels” value was “significantly (p<0.05) increased”.
As to `Nc1c(S(=O)(=O)O)cc(Nc2ccc(Nc3nc(Cl)nc(Nc4cccc(S(=O)(=O)O)c4)n3)c(S(=O)(=O)O)c2)c2c1C(=O)c1ccccc1C2=O` [RB-2, reactive blue 2], the “Block of uridine enhancement of NGF-stimulated neurite outgrowth” value (shortened to “Block … of NGF-stimulated neurite outgrowth”) in the assay on P2Y receptors (antagonist 10 μM) was “significantly (p<0.05 or 0.001) blocked”. Besides, in the assay with PC12 cells [5], the “Inhibition of uptake of uridine into PC12 cells” value (shortened to “Inhibition”) is recorded as “None of the P2Y receptor antagonists inhibited”.
Take `O=c1ccn([C@@H]2O[C@H](COP(=O)(O)OP(=O)(O)OP(=O)(O)O)[C@@H](O)[C@H]2O)c(=O)[nH]1` [UTP, uridine-5′-triphosphate]: the “Formation of IP (PI turnover)” value in assay [1] (NGF-differentiated PC12, 100 μM) is listed as “significantly increased”. In addition, the “Neurite outgrowth (neurites per cell)” value in the assay on PC12 cells [2] (PC12, NGF, 10 and 50 μM, 4 days, vs NGF only) is given as “significantly (p<0.01) enhanced”. For the same molecule, in the assay with PC12 cells [4] (100 μM), the “Intracellular CTP levels” value is on record as “did not significantly affect” and the “Intracellular UTP levels” value is listed as “did not significantly affect”.
On to `Cc1nc(N=Nc2ccc(S(=O)(=O)O)cc2S(=O)(=O)O)c(COP(=O)(O)O)c(C=O)c1O` [PPADS, pyridoxal-phosphate-6-azophenyl-2′,4′ disulfonic acid], for which the “Block … of NGF-stimulated neurite outgrowth” value with P2Y receptors (antagonist 30 μM) is “significantly (p<0.05 or 0.001) blocked”. For the same molecule, in the assay with PC12 cells [5], the “Inhibition” value is given as “None of the P2Y receptor antagonists inhibited”. For the same molecule, the “Block of UTP-stimulated IP signaling” value in assay [1] (NGF-differentiated PC12, antagonist 100 μM) was “significantly (p<0.05) blocked”.
Regarding `Cc1ccc(C(=O)Nc2ccc(S(=O)(=O)O)c3cc(S(=O)(=O)O)cc(S(=O)(=O)O)c23)cc1NC(=O)c1cccc(NC(=O)Nc2cccc(C(=O)Nc3cc(C(=O)Nc4ccc(S(=O)(=O)O)c5cc(S(=O)(=O)O)cc(S(=O)(=O)O)c45)ccc3C)c2)c1` [suramin], the “Block … of NGF-stimulated neurite outgrowth” value in the assay with P2Y receptors (antagonist 30 μM) is “significantly (p<0.05 or 0.001) blocked”. For the same molecule, the “Inhibition” value in the assay on PC12 cells [5] is recorded as “None of the P2Y receptor antagonists inhibited”.
As to `Nc1ccn([C@@H]2O[C@H](CO)[C@@H](O)[C@H]2O)c(=O)n1` [cytidine], the Neurite outgrowth entry in the assay on PC12 cells [2] (NGF-exposed PC12 cells, cytidine treatment) was “had no effect on neurite outgrowth”. Also, in the assay on PC12 cells [4] (50 μM), the “Intracellular CTP levels” value was “did not significantly affect” and the “Intracellular UTP levels” value is “did not significantly affect”.
